In publication doi:10.1101/2023.07.11.548539v1, “A side-by-side comparison of peptide-delivered antisense antibiotics employing different nucleotide mimics” (bioRxiv, 2023):
Oligonucleotides are written 5' to 3', each unit as a sugar letter and its base; * is a phosphorothioate linkage, no mark a phosphodiester; rarer units and linkages stand in square brackets, end groups in braces. Plain capitals give the bases only. d = 2'-deoxy (DNA)

What was measured:
[1] = system: Cy5 5'-labelled RNA, nucleotides -20 to +20 of acpP (target mRNA); assay: Microscale thermophoresis (MST) binding affinity; set-up: species or system Salmonella enterica; key to Binding affinity (in vitro): -: Effect strength is represented by additional (+) signs.; Effect strength is represented by additional (+) signs.; ++: Effect strength is represented by additional (+) signs.; +++: Effect strength is represented by additional (+) signs; settings: unconjugated ASO; for Binding affinity (in vitro): summary grade
Procedure: For each binding experiment, Cy5 5’-labelled RNA (as described above) was diluted to 10 nM in Buffer A (50 mM Tris-HCl pH 7.6, 250 mM KCl, 5 mM MgCl2, 1 mM DTT, 5% glycerol supplemented with 0.05% Tween 20). A series of 16 tubes with different ASO dilutions (500 nM to 0.015 nM) were prepared in Buffer A. For measurements, each ASO dilution was mixed with one volume of labeled RNA, which led to a final concentration of 5.0 nM labeled RNA and 250 nM to 0.007 nM of ASOs. The reaction was mixed by pipetting and incubated for 30 min at RT in the dark. Capillary forces were used to load the samples into Monolith NT.115 Premium Capillaries; measurements were performed using a Monolith Pico instrument (NanoTemper Technologies Gmbh, Munich, Germany) at an ambient temperature of 25 °C. Instrument parameters were adjusted to 5% LED power, medium MST power, and MST on-time of 2.5 s. An initial fluorescence scan was performed across the capillaries to determine sample quality, which was followed by 16 thermophoresis measurements. […] Data of two independent measurements were analyzed for the ΔFnorm value determined by the MO Affinity Analysis software (NanoTemper Technologies Gmbh, Munich, Germany). The fitting for EC50 values was done using the Hill equation within the MO Affinity Analysis software. Data are presented as the mean EC50 values of two independent experiments.

Salmonella = Salmonella growth assay; format: cell-based, Salmonella enterica serovar Typhimurium strain SL1344; set-up: key to Antibacterial activity: -: Effect strength is represented by additional (+) signs.; Effect strength is represented by additional (+) signs.; ++: Effect strength is represented by additional (+) signs.; +++: Effect strength is represented by additional (+) signs; settings: for Effect on Salmonella growth (in words): KFF-ASO conjugates or unconjugated peptide, 24 h growth kinetics, OD600, MHB, 37 °C, up to 10 µM; for Antibacterial activity: summary grade, ASO conjugated to the carrier peptide
Procedure: An overnight bacterial cell culture was diluted 1:100 in fresh MHB and grown to OD600 0.5. The obtained culture was diluted to approximately 10^5 cfu/ml in non-cation-adjusted MHB. Subsequently, 190 µl bacterial solution was dispensed into a 96-well plate (Thermo Fisher Scientific) along with 10 µl of a 200 µM solution of the ASOs. Growth was monitored by measuring the OD at 600 nm every 20 min in a Synergy H1 plate reader (Biotek) with continuous double-orbital shaking (237 cpm) at 37 °C for 24 h.

acpP mRNA = assay: RNA-seq, target mRNA depletion; format: cell-based, Salmonella enterica serovar Typhimurium strain SL1344; set-up: key to acpP depletion (RNA-seq): -: Effect strength is represented by additional (+) signs.; Effect strength is represented by additional (+) signs.; ++: Effect strength is represented by additional (+) signs.; +++: Effect strength is represented by additional (+) signs; settings: for acpP depletion (RNA-seq): summary grade, ASO conjugated to the carrier peptide; for acpP mRNA depletion (in words): 5 µM KFF-ASO conjugate, 15 min, ~10^6 cfu/ml
Procedure: RNA isolation was performed using previously published protocols ([30],[31]). Bacterial overnight cultures were diluted 1:100 in fresh MHB and grown to OD600 0.5. The cultures were diluted to approximately 10^6 cfu/ml in non-cation-adjusted MHB. Afterwards, an aliquot of the bacterial solution was transferred into 5 ml low-binding tubes (LABsolute) containing the ASOs solution (adjusted such that the final concentration was 5 μM for all tested compounds). As a negative control, cells were treated with the respective volume of sterile nuclease-free water, which was used as solvent for the ASOs. After incubating the samples for 15 min at 37 °C, RNAprotect Bacteria (Qiagen) was added according to the manufacturer’s instructions. Following a 10-min incubation, cells were pelleted at 4 °C and 21,100 × g for 20 min. The supernatant was discarded and pellets were either directly used or stored at –20°C (<1 day) for subsequent bacterial RNA isolation.
Total RNA was purified from bacterial pellets using the miRNeasy Mini kit (Qiagen) according to protocol #3 described in ([30]). Briefly, cells were resuspended in 0.5 mg/ml lysozyme (Roth) in TE buffer (pH 8.0) and incubated for 5 min. Afterwards, RLT buffer supplemented with β-mercaptoethanol, and ethanol were added according to the manufacturer’s instructions. After sample loading, column wash-steps were performed according to the manual. RNA concentration was measured with a NanoDrop spectrophotometer.
For transcriptomic analyses, RNA samples were processed and subjected to RNA-seq at Core Unit SysMed (University of Würzburg, Germany). Sequencing was run using a previously published protocol ([31]). Briefly, RNA quality was checked using a 2100 Bioanalyzer with the RNA 6000 Pico/ Nano kit (Agilent Technologies). RNA samples were DNase-treated using DNAse I kit (Thermo Fisher), followed by ribosomal RNA depletion using Lexogen’s RiboCop META rRNA Depletion Kit protocol according to manufacturer’s recommendation. Subsequently, cDNA libraries suitable for sequencing were prepared using CORALL Total RNA-Seq Library Prep protocol (Lexogen) according to manufacturer’s recommendation with 14–25 PCR cycles. Library quality was checked using a 2100 Bioanalyzer with the DNA High Sensitivity kit (Agilent Technologies). Sequencing of pooled libraries, spiked with 5% PhiX control library, was performed at 10 million reads/sample in single-end mode with 75 nt read length on the NextSeq 500 platform (Illumina) using High output sequencing kits. Demultiplexed FASTQ files were generated with bcl2fastq2 v2.20.0.422 (Illumina).
RNA-seq data analysis was performed similarly to our previous analysis of PNA activity in S. enterica ([30]). Briefly, adapters and low-quality bases (Phred quality score <10) of raw reads were trimmed using BBduk. Then the RNA-seq reads were mapped to the S. enterica serovar Typhimurium reference genome and the three plasmids pSLT SL1344, pCol1B9 SL1344, and pRSF1010 SL1344 ([37]) using BBMap (v38.18) and genomic features were assigned using the featureCounts command of the Subread (2.0.1) package ([38]). For the coverage plots in Figure 8, the bamCoverage (v3.3.2) method of the deepTools platform was applied ([39]).
Downstream RNA-seq analysis was performed using packages from the R/Bioconductor project. Raw read counts of all conditions were imported into edgeR (v3.34.1) ([40]) and analysed for differential expression. To filter low-count reads, features with less than 1.38 counts per million (CPM) in at least 5 libraries were ignored for further analysis. The cutoff of 1.38 CPM was set to 10/L, with L being the minimum library size across all samples in millions, as described in ([41]). Libraries were normalized using edgeR’s trimmed mean of M values (TMM) normalization ([40]). The glmFit function was applied to estimate quasi-likelihood dispersions and contrasts for differential expression analysis were tested using the glmQLTest function. […]

Substance	Binding affinity (in vitro) [1]	Binding affinity (EC50, nM) ([1]; MST, 5.0 nM labelled RNA, ASO 250 nM to 0.007 nM, 30 min RT, 25 °C, Hill fit, mean ± SD of two independent experiments)	Effect on Salmonella growth (in words) (Salmonella)	Antibacterial activity (Salmonella)	acpP depletion (RNA-seq) (acpP mRNA)	acpP mRNA depletion (in words) (acpP mRNA)
DNA-PTO: 10mer phosphorothioate-modified DNA antisense oligomer, sequence CTCATACTCT, targeting acpP (antisense dC*dT*dC*dA*dT*dA*dC*dT*dC*dT)	-	Could not be determined	slight growth retardation was observed at 5 µM and 10 µM	-	-	
LNA: 10mer 2'-4'-locked RNA antisense oligomer, sequence CTCATACTCT, targeting acpP (all LNA, backbone and methylation of C not given here)	+++		slight growth retardation was observed at 5 µM and 10 µM	-	-	slight effect
PMO: 10mer phosphorodiamidate morpholino antisense oligomer, sequence CTCATACTCT, targeting acpP (all phosphorodiamidate morpholino (PMO))	++			+		
PNA: 10mer peptide nucleic acid antisense oligomer, sequence CTCATACTCT, targeting acpP (all peptide nucleic acid (PNA))	+++			++		reduced the levels of acpP mRNA
RNA-F: 10mer 2'-fluorinated RNA antisense oligomer, sequence CTCATACTCT, targeting acpP (all 2'-fluoro, backbone and T or U not given here)	+		slight growth retardation was observed at 5 µM and 10 µM	-	-	
RNA-MOE: 10mer 2'-methoxyethylated RNA antisense oligomer, sequence CTCATACTCT, targeting acpP (all 2'-MOE, backbone and methylation of C not given here)	+++		slight growth retardation was observed at 5 µM and 10 µM	-	-	
RNA-OMe: 10mer 2'-methylated RNA antisense oligomer, sequence CTCATACTCT, targeting acpP (all 2'-O-methyl, backbone and T or U not given here)	++		no activity at all	-	-	
